Calls of active or inactive are those of the source.
Experiments:
[1] = viability loss of HPDE-C7K cells – cell-based, fluorescence, HTS, primary screen (AID 431); format: functional; conditions: Homo sapiens
[2] = HPDE-C7 pancreatic duct cell viability loss – fluorescence, HTS (AID 430); format: functional, cell-based; conditions: Homo sapiens
[3] = target: Peroxisome proliferator-activated receptor gamma/Nuclear receptor coactivator 1 (Homo sapiens, UniProt P37231); format: functional;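 further: agonist potency as compounds enhance coactivator SRC-1 recruitment to PPARgamma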
Sequence of Peroxisome proliferator-activated receptor gamma/Nuclear receptor coactivator 1 (P37231 whole entry): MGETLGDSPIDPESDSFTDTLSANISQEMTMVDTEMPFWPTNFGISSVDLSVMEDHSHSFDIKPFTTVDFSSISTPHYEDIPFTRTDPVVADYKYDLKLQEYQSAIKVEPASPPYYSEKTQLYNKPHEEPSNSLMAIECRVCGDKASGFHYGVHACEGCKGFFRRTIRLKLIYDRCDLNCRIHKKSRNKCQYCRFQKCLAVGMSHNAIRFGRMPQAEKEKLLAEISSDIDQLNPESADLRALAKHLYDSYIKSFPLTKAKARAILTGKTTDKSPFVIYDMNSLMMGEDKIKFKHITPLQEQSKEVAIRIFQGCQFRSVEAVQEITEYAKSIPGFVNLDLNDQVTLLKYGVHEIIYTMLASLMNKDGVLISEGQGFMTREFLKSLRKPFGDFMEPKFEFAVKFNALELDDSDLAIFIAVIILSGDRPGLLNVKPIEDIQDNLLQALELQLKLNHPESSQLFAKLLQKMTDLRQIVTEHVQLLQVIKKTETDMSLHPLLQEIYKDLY
Sequence of Peroxisome proliferator-activated receptor gamma/Nuclear receptor coactivator 1 (Q15788 whole entry, further chain): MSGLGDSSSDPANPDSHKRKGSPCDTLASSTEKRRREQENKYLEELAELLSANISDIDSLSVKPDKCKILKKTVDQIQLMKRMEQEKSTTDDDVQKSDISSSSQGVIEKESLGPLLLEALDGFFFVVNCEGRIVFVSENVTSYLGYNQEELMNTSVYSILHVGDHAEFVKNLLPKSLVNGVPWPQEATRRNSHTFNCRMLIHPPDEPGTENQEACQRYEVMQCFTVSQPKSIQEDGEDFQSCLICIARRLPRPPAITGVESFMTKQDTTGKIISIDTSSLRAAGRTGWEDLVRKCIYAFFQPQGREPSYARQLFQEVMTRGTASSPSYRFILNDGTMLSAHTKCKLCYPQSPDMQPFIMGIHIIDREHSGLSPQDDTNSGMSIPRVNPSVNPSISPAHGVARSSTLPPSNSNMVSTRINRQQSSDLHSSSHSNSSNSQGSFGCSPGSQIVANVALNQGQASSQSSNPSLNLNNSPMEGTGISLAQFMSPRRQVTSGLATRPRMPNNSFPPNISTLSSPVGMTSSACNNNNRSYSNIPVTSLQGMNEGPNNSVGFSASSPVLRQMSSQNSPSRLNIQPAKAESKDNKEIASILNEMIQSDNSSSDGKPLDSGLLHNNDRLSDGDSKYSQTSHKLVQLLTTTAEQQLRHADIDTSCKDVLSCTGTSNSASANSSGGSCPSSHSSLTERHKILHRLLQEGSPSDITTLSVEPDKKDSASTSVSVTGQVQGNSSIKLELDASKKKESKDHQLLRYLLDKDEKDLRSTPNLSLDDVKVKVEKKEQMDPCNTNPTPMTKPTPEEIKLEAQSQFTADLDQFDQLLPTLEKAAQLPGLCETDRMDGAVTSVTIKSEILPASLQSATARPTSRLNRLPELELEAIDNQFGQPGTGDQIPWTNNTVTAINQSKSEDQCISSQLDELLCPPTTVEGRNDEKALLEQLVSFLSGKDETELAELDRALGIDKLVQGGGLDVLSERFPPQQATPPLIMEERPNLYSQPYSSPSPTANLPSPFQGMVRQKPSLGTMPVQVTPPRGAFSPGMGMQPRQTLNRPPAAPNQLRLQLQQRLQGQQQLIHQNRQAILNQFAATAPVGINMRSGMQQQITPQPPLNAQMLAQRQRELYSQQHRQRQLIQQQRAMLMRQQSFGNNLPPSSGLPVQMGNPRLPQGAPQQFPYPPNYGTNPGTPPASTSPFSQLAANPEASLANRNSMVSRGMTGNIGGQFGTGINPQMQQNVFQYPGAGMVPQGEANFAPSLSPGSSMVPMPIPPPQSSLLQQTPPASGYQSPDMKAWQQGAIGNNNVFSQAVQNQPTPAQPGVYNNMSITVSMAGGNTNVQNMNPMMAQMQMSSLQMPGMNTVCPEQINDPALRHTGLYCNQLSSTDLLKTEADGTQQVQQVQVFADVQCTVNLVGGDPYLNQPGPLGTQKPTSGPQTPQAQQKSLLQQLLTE

[4] = target: Peroxisome proliferator-activated receptor gamma/Nuclear receptor coactivator 3 (Homo sapiens, UniProt P37231); format: functional;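 further: agonist potency for raising coactivator recruitment to the receptor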
[5] = target: Peroxisome proliferator-activated receptor gamma/Nuclear receptor coactivator 2 (Homo sapiens, UniProt P37231); format: functional;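 further: agonist potency for raising coactivator recruitment to the receptor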
Sequence of Peroxisome proliferator-activated receptor gamma/Nuclear receptor coactivator 2 (P37231 whole entry): as the sequence (P37231 whole entry) above
Sequence of Peroxisome proliferator-activated receptor gamma/Nuclear receptor coactivator 2 (Q15596 whole entry, further chain): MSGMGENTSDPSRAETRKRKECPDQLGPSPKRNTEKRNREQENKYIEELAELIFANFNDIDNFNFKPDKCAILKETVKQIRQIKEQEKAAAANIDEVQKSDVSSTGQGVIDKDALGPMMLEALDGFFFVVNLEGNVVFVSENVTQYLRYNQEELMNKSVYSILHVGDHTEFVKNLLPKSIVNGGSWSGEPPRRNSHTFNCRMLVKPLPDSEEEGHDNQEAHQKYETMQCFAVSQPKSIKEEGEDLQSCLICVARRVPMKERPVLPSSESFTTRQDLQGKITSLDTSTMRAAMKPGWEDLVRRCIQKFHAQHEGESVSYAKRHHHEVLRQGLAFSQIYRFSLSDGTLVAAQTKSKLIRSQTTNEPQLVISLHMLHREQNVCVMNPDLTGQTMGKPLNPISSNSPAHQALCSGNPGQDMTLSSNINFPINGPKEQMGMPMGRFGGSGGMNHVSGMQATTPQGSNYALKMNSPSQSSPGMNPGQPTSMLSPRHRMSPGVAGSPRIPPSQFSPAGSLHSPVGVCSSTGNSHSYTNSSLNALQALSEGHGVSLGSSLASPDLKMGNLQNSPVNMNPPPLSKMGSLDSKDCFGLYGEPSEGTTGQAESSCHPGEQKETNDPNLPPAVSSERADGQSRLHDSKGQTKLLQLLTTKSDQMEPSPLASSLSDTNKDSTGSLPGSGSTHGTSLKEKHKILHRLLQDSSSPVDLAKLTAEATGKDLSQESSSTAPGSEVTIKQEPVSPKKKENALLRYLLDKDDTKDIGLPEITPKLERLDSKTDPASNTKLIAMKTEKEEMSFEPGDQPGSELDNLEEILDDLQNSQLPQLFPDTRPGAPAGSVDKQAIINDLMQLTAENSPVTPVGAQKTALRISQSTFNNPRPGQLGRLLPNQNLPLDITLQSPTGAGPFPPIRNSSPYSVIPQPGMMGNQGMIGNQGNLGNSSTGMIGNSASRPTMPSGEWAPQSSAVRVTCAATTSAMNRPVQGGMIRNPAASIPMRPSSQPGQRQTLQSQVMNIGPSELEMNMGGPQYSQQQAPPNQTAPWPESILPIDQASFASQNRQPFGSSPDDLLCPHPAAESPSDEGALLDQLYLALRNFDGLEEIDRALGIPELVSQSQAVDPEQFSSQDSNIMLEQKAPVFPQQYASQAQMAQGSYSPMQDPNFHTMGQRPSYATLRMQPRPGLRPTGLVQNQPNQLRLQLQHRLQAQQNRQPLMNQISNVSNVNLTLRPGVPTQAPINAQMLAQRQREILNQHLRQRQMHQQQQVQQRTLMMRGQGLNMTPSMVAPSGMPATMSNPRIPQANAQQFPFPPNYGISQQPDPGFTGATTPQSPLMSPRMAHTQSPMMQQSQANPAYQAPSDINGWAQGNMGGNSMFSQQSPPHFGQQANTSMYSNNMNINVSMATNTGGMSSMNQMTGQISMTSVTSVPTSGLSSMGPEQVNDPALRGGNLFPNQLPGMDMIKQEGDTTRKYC

Leucine aminopeptidase = target: T1, Leucine aminopeptidase (Plasmodium falciparum 3D7, UniProt Q8IL11); assay: P. falciparum M17LAP inhibitors, primary screen, biochemical, fluorogenic H-Leu-NHMec substrate, 1536-well (AID 1619); format: functional
T1 sequence (Q8IL11 whole entry): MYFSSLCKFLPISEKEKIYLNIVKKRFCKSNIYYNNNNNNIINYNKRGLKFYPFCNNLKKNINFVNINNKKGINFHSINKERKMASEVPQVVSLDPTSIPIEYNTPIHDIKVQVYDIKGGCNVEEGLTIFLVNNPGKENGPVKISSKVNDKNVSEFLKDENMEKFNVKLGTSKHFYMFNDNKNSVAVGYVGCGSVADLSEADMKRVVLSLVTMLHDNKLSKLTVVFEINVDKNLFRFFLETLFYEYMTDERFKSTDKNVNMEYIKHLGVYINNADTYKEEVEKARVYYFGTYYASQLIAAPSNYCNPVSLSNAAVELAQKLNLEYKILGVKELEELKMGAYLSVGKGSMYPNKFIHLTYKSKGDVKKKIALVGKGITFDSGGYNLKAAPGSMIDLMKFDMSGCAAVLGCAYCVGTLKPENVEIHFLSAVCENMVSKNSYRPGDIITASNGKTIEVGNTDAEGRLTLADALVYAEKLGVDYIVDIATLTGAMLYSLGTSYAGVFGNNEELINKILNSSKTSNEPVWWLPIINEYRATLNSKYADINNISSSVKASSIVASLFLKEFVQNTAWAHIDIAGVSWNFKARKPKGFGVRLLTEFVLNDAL

Procathepsin L = Procathepsin L (Homo sapiens, UniProt P07711); assay: CTSL1 protease inhibition – biochemical, QFRET, 1536-well, counter-screen for M1/M17 aminopeptidase inhibitor project, dose response (AID 2214)
Sequence of Procathepsin L (P07711 whole entry): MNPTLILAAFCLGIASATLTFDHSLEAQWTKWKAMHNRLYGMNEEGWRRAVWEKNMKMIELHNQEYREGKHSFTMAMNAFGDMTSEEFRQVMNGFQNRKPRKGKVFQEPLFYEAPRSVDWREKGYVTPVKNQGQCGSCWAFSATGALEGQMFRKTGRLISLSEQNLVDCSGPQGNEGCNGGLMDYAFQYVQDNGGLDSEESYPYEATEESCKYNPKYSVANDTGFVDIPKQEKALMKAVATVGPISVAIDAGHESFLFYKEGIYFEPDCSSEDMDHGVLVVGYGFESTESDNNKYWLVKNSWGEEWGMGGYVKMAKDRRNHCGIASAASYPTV

Aspartyl aminopeptidase = target: T2, Aspartyl aminopeptidase (Plasmodium falciparum 3D7, UniProt Q8I2J3); assay: Counterscreen for inhibitors of M1 and M17 aminopeptidases: QFRET-based biochemical high throughput dose response assay for inhibitors of the Plasmodium falciparum M18 Aspartyl Aminopeptidase (PFM18AAP). [Related PubChem assays: 1619 (Screening assay (M17LAP inhibitors).), 1445 (Screening assay (M1AAP inhibitors).)]
T2 sequence (Q8I2J3 whole entry): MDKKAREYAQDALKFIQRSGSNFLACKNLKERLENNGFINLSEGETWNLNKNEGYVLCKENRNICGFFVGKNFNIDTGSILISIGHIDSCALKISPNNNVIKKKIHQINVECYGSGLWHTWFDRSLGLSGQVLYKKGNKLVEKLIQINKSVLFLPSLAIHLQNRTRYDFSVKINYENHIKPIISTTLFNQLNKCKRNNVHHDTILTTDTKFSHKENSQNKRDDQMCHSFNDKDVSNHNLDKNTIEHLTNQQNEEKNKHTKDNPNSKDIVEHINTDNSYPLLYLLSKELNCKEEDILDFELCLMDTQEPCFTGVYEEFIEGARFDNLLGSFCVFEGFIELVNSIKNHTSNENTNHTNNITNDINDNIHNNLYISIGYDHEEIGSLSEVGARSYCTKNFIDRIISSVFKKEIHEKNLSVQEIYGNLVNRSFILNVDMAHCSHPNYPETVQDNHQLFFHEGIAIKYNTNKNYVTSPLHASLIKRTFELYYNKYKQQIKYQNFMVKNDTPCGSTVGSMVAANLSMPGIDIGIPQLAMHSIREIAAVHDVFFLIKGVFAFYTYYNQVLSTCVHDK

[6] = Vero E6 cell cytotoxicity, dose response, cytotoxicity control for non-replicating M. tuberculosis project, secondary assay (AID 492998); format: functional, VeroE6; conditions: Vero C1008
cells = format: functional
[7] = microbe, parasite or virus in culture; format: functional; conditions: Mycobacterium tuberculosis
[8] = THP-1 cell cytotoxicity, dose response, cytotoxicity control for non-replicating M. tuberculosis project (AID 489025); format: functional
[9] = target: Luciferin 4-monooxygenase (Photinus pyralis, UniProt P08659); assay: Counter Screen for Luciferase-based Assay Positives. [Related pubchem assays: 620, 618, 411 ]
Sequence of Luciferin 4-monooxygenase (P08659 whole entry): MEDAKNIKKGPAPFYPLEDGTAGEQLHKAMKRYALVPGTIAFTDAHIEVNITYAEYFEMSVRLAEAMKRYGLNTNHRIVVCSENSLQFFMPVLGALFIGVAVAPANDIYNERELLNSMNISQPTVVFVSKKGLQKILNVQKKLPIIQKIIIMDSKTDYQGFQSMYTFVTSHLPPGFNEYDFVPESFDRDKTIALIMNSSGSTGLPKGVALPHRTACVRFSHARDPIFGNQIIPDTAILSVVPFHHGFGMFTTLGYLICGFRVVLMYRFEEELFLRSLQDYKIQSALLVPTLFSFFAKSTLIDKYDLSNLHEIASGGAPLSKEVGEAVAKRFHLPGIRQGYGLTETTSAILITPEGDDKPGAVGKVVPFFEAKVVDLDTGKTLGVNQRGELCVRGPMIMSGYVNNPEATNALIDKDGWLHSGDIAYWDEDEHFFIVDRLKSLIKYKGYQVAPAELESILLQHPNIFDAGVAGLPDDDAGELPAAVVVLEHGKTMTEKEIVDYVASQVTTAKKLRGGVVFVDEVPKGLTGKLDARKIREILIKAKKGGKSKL

[10] = target: T3, Microphthalmia-associated transcription factor (Homo sapiens, UniProt O75030); assay: reducers of TRPM1 reporter luminescence, concentration series – cell-based, SK-MEL-5, cherry-picked, set 3, MITF inhibitor project, dose response (AID 493073); format: functional;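 further: SK-MEL-5 melanoma cells with luciferase driven by the MITF target TRPM1 promoter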
T3 sequence (O75030 whole entry): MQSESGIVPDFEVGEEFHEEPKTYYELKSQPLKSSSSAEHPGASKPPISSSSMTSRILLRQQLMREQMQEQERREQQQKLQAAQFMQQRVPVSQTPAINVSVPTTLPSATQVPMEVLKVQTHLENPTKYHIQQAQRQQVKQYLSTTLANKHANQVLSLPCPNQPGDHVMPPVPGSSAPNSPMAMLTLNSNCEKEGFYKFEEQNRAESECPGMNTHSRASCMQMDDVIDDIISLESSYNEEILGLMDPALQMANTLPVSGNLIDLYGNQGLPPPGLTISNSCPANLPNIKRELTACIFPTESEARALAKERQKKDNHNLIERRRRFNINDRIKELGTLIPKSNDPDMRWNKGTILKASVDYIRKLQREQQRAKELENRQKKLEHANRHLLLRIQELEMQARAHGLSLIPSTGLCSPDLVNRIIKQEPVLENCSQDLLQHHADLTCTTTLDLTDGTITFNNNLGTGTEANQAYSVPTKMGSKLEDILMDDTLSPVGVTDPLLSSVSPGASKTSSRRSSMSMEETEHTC

HT-1080 = assay: HT1080 cell viability loss – fluorescence readout (AID 620); format: functional, cell-based; conditions: Homo sapiens
Genome polyprotein = Genome polyprotein (dengue virus type 2, UniProt P29990); assay: flavivirus cap methylation enzyme inhibition – biochemical, confirmation dose response, primary screen (AID 588689); format: functional
Aminopeptidase N = target: T4, Aminopeptidase N (Plasmodium falciparum FcB1/Columbia, UniProt O96935); assay: malaria alanyl aminopeptidase activity blockers – biochemical, fluorogenic H-Leu-NHMec substrate, 1536-well (AID 1445); parameters: species or system Plasmodium falciparum 3D7, 3D7
T4 sequence (O96935 whole entry): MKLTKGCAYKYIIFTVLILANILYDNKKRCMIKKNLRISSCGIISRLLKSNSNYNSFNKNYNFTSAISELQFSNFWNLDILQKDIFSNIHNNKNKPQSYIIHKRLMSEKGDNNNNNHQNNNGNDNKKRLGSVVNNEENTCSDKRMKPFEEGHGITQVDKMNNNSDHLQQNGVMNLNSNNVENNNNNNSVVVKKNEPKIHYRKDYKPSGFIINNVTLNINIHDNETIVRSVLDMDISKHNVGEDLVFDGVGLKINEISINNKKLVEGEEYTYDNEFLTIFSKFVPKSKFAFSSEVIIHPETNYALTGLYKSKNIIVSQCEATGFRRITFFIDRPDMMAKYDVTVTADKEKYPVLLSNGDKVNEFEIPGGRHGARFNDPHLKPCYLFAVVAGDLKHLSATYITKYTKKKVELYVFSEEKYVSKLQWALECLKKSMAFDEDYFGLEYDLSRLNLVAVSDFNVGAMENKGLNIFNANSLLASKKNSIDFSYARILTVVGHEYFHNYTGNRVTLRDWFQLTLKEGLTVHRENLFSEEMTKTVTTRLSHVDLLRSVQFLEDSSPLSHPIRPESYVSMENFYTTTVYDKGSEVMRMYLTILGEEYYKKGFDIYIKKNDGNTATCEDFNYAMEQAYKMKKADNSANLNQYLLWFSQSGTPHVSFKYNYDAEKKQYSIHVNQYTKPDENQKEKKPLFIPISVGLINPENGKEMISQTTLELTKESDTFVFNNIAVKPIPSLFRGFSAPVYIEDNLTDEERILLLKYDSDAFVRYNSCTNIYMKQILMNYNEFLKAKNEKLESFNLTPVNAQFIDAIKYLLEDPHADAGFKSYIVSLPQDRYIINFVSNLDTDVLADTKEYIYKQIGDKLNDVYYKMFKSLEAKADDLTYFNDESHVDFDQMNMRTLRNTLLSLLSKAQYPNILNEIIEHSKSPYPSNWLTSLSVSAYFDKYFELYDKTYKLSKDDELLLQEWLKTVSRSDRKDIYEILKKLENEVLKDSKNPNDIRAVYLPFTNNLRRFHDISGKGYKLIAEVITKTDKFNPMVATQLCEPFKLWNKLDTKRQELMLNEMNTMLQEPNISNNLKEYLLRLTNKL

## CCSC1=C(C#N)C(=O)n2c1cc1c2CCCC1
[1]
  EC50: 15.4 µM (active)
[2]
  EC50: 13.6 µM (active)

## Cn1cnnc1SCc1ccc(C(=O)N=Nc2c(O)n(C)c3ccccc23)cc1
[3]
  EC50: > 79.4 µM (not active)
[4]
  EC50: > 79.4 µM (not active)
[5]
  EC50: > 79.4 µM (not active)

## Cc1ccc(Nc2nnc(SC(C)C(=O)Nc3c(C)n(C)n(-c4ccccc4)c3=O)s2)cc1 (configuration not stated)
Leucine aminopeptidase
  IC50: 3.86 µM (active)
Procathepsin L
  IC50: > 59.6 µM (not active)
Aspartyl aminopeptidase
  IC50: > 73.5 µM (not active)

## O=C(Nc1ncc(Cc2ccccc2Cl)s1)C1=NCCN1
[6]
  CC50: > 20 µM (active)
cells
  IC50: 4.03 µM (active)
[7]
  CC50: > 40 µM (active)
[8]
  CC50: > 40 µM (active)

## Cc1[nH]c2ccccc2c1C(=O)C(=O)NCCOc1ccccc1
[3]
  EC50: > 79.4 µM (not active)
[4]
  EC50: > 79.4 µM (not active)
[5]
  EC50: > 79.4 µM (not active)

## Cc1ccccc1C(=O)N/N=C/c1ccc([N+](=O)[O-])s1
[9]
  EC50: 11 µM (active)
[10]
  AC50: 1.88 µM (active)
HT-1080
  EC50: > 50 µM (not active)

## O=C1/C(=C/c2cccs2)SC(=S)N1NS(=O)(=O)c1ccccc1
Procathepsin L
  IC50: > 59.6 µM (not active)
Genome polyprotein
  IC50: 57.4 µM (active)
Aspartyl aminopeptidase
  IC50: > 73.5 µM (not active)
Aminopeptidase N
  IC50: 16.6 µM (active)

From ChEMBL document CHEMBL1201862, “PubChem BioAssay data set” (2004)
